Paper PMC2654064, “S9, a Novel Anticancer Agent, Exerts Its Anti-Proliferative Activity by Interfering with Both PI3K-Akt-mTOR Signaling and Microtubule Cytoskeleton” (PLoS ONE, 2009)
Like-named read-outs stand apart in the source and are kept apart here.

How the values were obtained:
MCF-7 = assay: cells; design: SRB anti-proliferation assay against a panel of human tumour cell lines; conditions: Homo sapiens, MCF7; read-out: IC50 (μM) S9
Method: (§1) The anti-proliferative activity of S9 was measured with SRB assay against a panel of human tumor cells, including oral epidermoid cancer, lung cancer, liver cancer, colon cancer, rhabdomyosarcoma, ovarian cancer, osteosarcoma, breast cancer, cervix cancer, stomach cancer, prostate cancer and leukemia cells. […] This advantage was also observed in the mini-set of colon cancer cell lines (Fig. 6A). […] A) Antiproliferative activity of S9 and wortmannin against a wide panel of tumor cell lines. IC50s plotted as mean±SD (µM) were from three separate experiments. B) Resistance factor (RF) of S9 and reference compounds in drug-resistant cancer cells. RF was calculated as the ratio of the IC50 value of the drug-resistant cells to that of the corresponding parental cells. C) S9 induces rapid apoptosis in human cancer cells. Rh30, A375, MKN-28 and U2OS cells were treated with S9 for 8 h. Apoptosis was measured by Annexin V-PI double staining. Apoptosis measured as Annexin-V positive cells were plotted. Data shown were mean±SD from three independent experiments. D) Rh30 (left panel) and SMMC7721 (right panel) xenograft growth inhibition after administration of S9. Rh30 and SMMC7721 nude mice were subcutaneously inoculated with a tumor fragment. The animals were randomly divided in groups when tumor volume reached 100 to 200 mm^3 and received i.p. injection of normal saline or S9 five times a week for two weeks. Tumor volumes were measured and relative tumor volumes were calculated as tumor volumeDn/tumor volumeD0. Data shown are the mean of six mice. Human colorectal carcinoma LOVO, human breast carcinoma MDA-MB-468, human prostate carcinoma PC3, human osteosarcoma U2OS cells were from American Type Culture Collection (ATCC, Manassas, VA); human lung adenocarcinoma NCI-H23 cells were obtained from the National Cancer Institute (NCI); rhabdomyosarcoma (RMS) Rh30 cells were generous gift from Dr. P.J. Houghton (St. Jude Children's Research Hospital, Memphis, TN). MDA-MB-468, Rh30, LOVO, NCI-H23 and U2OS cells were grown in RPMI-1640 medium supplemented with 10% (v/v) fetal bovine serum (FBS; GIBCO, Grand Island, NY), 2 mM L-glutamine, 100 U/ml benzylpenicillin, 100 µg/ml streptomycin and 10 mM HEPES (pH 7.4). PC3 cells were grown in Ham's F12 (GIBCO, Grand Island, NY) with 10% FBS. CHO (pCORON1000-EGFP-Akt) was purchased from GE Healthcare (EGFP: Enhanced Green Fluorescence Protein) and propagated in F-12 Ham medium with Glutamax supplemented with 10% FBS, penicillin-streptomycin (50 U/ml) and geneticin (0.5 mg/ml, Sigma-Aldrich, St. Louis, MO). Rest of cells used in this study were grown as described previously. All cells were cultured in a highly humidified atmosphere containing 5% CO2 at 37°C.

HT-29 = assay: cells; design: SRB anti-proliferation assay against a panel of human tumour cell lines; conditions: Homo sapiens, HT-29
Method: as §1

MKN-45 = assay: cells; design: SRB anti-proliferation assay against a panel of human tumour cell lines; conditions: Homo sapiens, MKN-45; read-out: IC50 (μM) S9
Method: as §1

MCF-7/ADR = assay: cells; design: SRB anti-proliferation assay against a panel of human tumour cell lines; conditions: Homo sapiens, NCI/ADR-RES
Method: as §1

HCT-116 = assay: cells; design: SRB anti-proliferation assay against a panel of human tumour cell lines; conditions: Homo sapiens, HCT-116
Method: as §1

Rh30 = assay: cells; design: SRB anti-proliferation assay against a panel of human tumour cell lines; conditions: Rh30
Method: as §1

Rh1 = assay: cells; design: SRB anti-proliferation assay against a panel of human tumour cell lines; conditions: Homo sapiens, RH-1; read-out: IC50 (μM) S9
Method: as §1

K562/A02 = assay: cells; design: SRB anti-proliferation assay against a panel of human tumour cell lines; conditions: Homo sapiens, K562/A02; read-out: IC50 (μM) S9
Method: as §1

MDA-MB-468 = assay: cells; design: SRB anti-proliferation assay against a panel of human tumour cell lines; conditions: Homo sapiens, MDA-MB-468
Method: as §1

K562/G01 = assay: cells; design: SRB anti-proliferation assay against a panel of human tumour cell lines; conditions: Homo sapiens, K562
Method: as §1

KB-V1 = assay: cells; design: SRB anti-proliferation assay against a panel of human tumour cell lines; conditions: Homo sapiens, KB-V1
Method: as §1

K562 = assay: cells; design: SRB anti-proliferation assay against a panel of human tumour cell lines; conditions: Homo sapiens, K562
Method: as §1

HL60 = assay: cells; design: SRB anti-proliferation assay against a panel of human tumour cell lines; conditions: Homo sapiens, HL-60
Method: as §1

KB-8-5-11 = assay: cells; design: SRB anti-proliferation assay against a panel of human tumour cell lines
Method: as §1

KB-3-1 = assay: cells; design: SRB anti-proliferation assay against a panel of human tumour cell lines; conditions: Homo sapiens, KB 3-1
Method: as §1

OV-CAR-5 = assay: cells; design: SRB anti-proliferation assay against a panel of human tumour cell lines; conditions: Homo sapiens, OVCAR-5; read-out: IC50 (μM) S9
Method: as §1

SK-OV-3 = assay: cells; design: SRB anti-proliferation assay against a panel of human tumour cell lines; conditions: Homo sapiens, SK-OV-3
Method: as §1

PC3 = assay: cells; design: SRB anti-proliferation assay against a panel of human tumour cell lines; conditions: Homo sapiens, PC-3; read-out: IC50 (μM) S9
Method: as §1

Hep-G2 = assay: cells; design: SRB anti-proliferation assay against a panel of human tumour cell lines; conditions: Homo sapiens, HepG2
Method: as §1

Hela = assay: cells; design: SRB anti-proliferation assay against a panel of human tumour cell lines; conditions: Homo sapiens, HeLa; read-out: IC50 (μM) S9
Method: as §1

MKN-28 = assay: cells; design: SRB anti-proliferation assay against a panel of human tumour cell lines; conditions: Homo sapiens, MKN-28
Method: as §1

U2OS = assay: cells; design: SRB anti-proliferation assay against a panel of human tumour cell lines; conditions: Homo sapiens, U2OS
Method: as §1

HL60/MX2 = assay: cells; design: SRB anti-proliferation assay against a panel of human tumour cell lines; conditions: Homo sapiens, HL60/MX2
Method: as §1

SGC-7901 = assay: cells; design: SRB anti-proliferation assay against a panel of human tumour cell lines; conditions: Homo sapiens, SGC-7901
Method: as §1

KB-8-5 = assay: cells; design: SRB anti-proliferation assay against a panel of human tumour cell lines; conditions: read-out: IC50 (μM) S9
Method: as §1

BEL-7402 = assay: cells; design: SRB anti-proliferation assay against a panel of human tumour cell lines; conditions: Homo sapiens, Bel-7402; read-out: IC50 (μM) S9
Method: as §1

Rh30/rapa = assay: cells; design: SRB anti-proliferation assay against a panel of human tumour cell lines; conditions: Rh30
Method: as §1

A549 = assay: cells; design: SRB anti-proliferation assay against a panel of human tumour cell lines; conditions: Homo sapiens, A549
Method: as §1

NCI-H23 = assay: cells; design: SRB anti-proliferation assay against a panel of human tumour cell lines; conditions: Homo sapiens, NCI-H23
Method: as §1

LOVO = assay: cells; design: SRB anti-proliferation assay against a panel of human tumour cell lines; conditions: Homo sapiens, LoVo
Method: as §1

tubulin = target: T1, tubulin; assay: SPR (Biacore); supported by colchicine fluorescence competition, polymerization of purified pork tubulin and CD; format: binding, Sus scrofa
T1 construct: gene TUBB; purified tubulin (Cytoskeleton, Denver) immobilized on CM5 chip; with alpha-tubulin

Compound: C=C1CC(Cn2c(-c3ccccc3)cc3cc(OCOC)ccc32)OC1=O (stereo not shown) [S9]
- IC50 (MCF-7): 4.86 ± 1.34 µM
- IC50 (HT-29; read-out: IC50 (μM) S9): 5.88 ± 0.28 µM
- IC50 (MKN-45): 2.62 ± 0.26 µM
- IC50 (MCF-7/ADR; read-out: IC50 (μM) S9): 5.73 ± 1.68 µM
- IC50 (HCT-116; read-out: IC50 (μM) S9): 19.6 ± 1.9 µM
- IC50 (Rh30; read-out: IC50 (μM) S9): 3.24 ± 1.2 µM
- IC50 (Rh1): 6.14 ± 0.05 µM
- IC50 (K562/A02): 2.5 ± 0.01 µM
- IC50 (MDA-MB-468; read-out: IC50 (μM) S9): 14.1 ± 4.6 µM
- IC50 (K562/G01; read-out: IC50 (μM) S9): 2.17 µM
- IC50 (KB-V1; read-out: IC50 (μM) S9): 13.3 ± 2.2 µM
- IC50 (K562; read-out: IC50 (μM) S9): 2.2 ± 0.33 µM
- IC50 (HL60; read-out: IC50 (μM) S9): 2.25 ± 0.74 µM
- IC50 (KB-8-5-11; read-out: IC50 (μM) S9): 14.9 ± 1.3 µM
- IC50 (KB-3-1; read-out: IC50 (μM) S9): 20.2 ± 3.8 µM
- IC50 (OV-CAR-5): 15.4 ± 2.9 µM
- IC50 (SK-OV-3; read-out: IC50 (μM) S9): 25.5 ± 0.1 µM
- IC50 (PC3): 5.34 ± 1.39 µM
- IC50 (Hep-G2; read-out: IC50 (μM) S9): 4.55 ± 1.8 µM
- IC50 (Hela): 6.36 ± 1.51 µM
- IC50 (MKN-28; read-out: IC50 (μM) S9): 2.38 ± 0.39 µM
- IC50 (U2OS; read-out: IC50 (μM) S9): 5.9 ± 0.38 µM
- IC50 (HL60/MX2; read-out: IC50 (μM) S9): 2.41 ± 1.28 µM
- IC50 (SGC-7901; read-out: IC50 (μM) S9): 11.6 ± 2.41 µM
- IC50 (KB-8-5): 28.8 ± 7.3 µM
- IC50 (BEL-7402): 11.8 ± 1.6 µM
- IC50 (Rh30/rapa; read-out: IC50 (μM) S9): 3.85 ± 0.95 µM
- IC50 (A549; read-out: IC50 (μM) S9): 14.8 ± 2.2 µM
- IC50 (NCI-H23; read-out: IC50 (μM) S9): 9.02 ± 0.05 µM
- IC50 (LOVO; read-out: IC50 (μM) S9): 5.05 ± 0.5 µM
- Kd (tubulin): 11.1 µM

Compound: COC[C@H]1OC(=O)c2coc3c2[C@@]1(C)C1=C(C3=O)[C@@H]2CCC(=O)[C@@]2(C)C[C@H]1OC(C)=O [wortmannin]
- IC50 (HT-29; read-out: IC50 (μM) wortmannin): 18 ± 2.4 µM
- IC50 (MCF-7/ADR; read-out: IC50 (μM) wortmannin): 47.2 ± 6.45 µM
- IC50 (HCT-116; read-out: IC50 (μM) wortmannin): 41.5 ± 4.5 µM
- IC50 (Rh30; read-out: IC50 (μM) wortmannin): 11 ± 3.02 µM
- IC50 (MDA-MB-468; read-out: IC50 (μM) wortmannin): 29.3 ± 6.6 µM
- IC50 (K562/G01; read-out: IC50 (μM) wortmannin): 10.4 ± 4.52 µM
- IC50 (KB-V1; read-out: IC50 (μM) wortmannin): 16.8 ± 2.2 µM
- IC50 (K562; read-out: IC50 (μM) wortmannin): 54.8 ± 6.3 µM
- IC50 (HL60; read-out: IC50 (μM) wortmannin): 7.55 ± 2.84 µM
- IC50 (KB-8-5-11; read-out: IC50 (μM) wortmannin): 15.7 ± 4.1 µM
- IC50 (KB-3-1; read-out: IC50 (μM) wortmannin): 27.2 ± 3.2 µM
- IC50 (SK-OV-3; read-out: IC50 (μM) wortmannin): 18 ± 6.3 µM
- IC50 (Hep-G2; read-out: IC50 (μM) wortmannin): 12.3 ± 2.6 µM
- IC50 (MKN-28; read-out: IC50 (μM) wortmannin): 12.8 ± 2.8 µM
- IC50 (U2OS; read-out: IC50 (μM) wortmannin): 26.7 ± 4.31 µM
- IC50 (HL60/MX2; read-out: IC50 (μM) wortmannin): 1.47 ± 0.6 µM
- IC50 (SGC-7901; read-out: IC50 (μM) wortmannin): 3.94 ± 1.74 µM
- IC50 (Rh30/rapa; read-out: IC50 (μM) wortmannin): 0.73 ± 0.51 µM
- IC50 (A549; read-out: IC50 (μM) wortmannin): 9.33 ± 6.1 µM
- IC50 (NCI-H23; read-out: IC50 (μM) wortmannin): 5.57 ± 1.15 µM
- IC50 (LOVO; read-out: IC50 (μM) wortmannin): 12.2 ± 0.42 µM
